We go through 40 compounds from the RepoRT retention time repository (doi:10.1007/s00216-021-03828-0).

Common to all, as to conditions: stereoisomer not certain
Data set [1] is described as follows: RP, Merck Supelco Ascentis Express C18, 100 × 2.1 mm, 2 µm, 40 °C, 0.35 mL/min, estimated dead time 0.63 min; A: water + 0.1% formic acid, pH 3; B: acetonitrile + 0.1% formic acid, pH 3; gradient (min/%B) 0/5 2/5 17/99.9 20/99.9.
Data set [2] in a line: RP, Merck Supelco Ascentis Express C18, 100 × 2.1 mm, 2 µm, 40 °C, 0.4 mL/min, estimated dead time 0.55 min; A: water + 0.1% formic acid, pH 3; B: acetonitrile + 0.1% formic acid, pH 3; gradient (min/%B) 0/5 2/5 17/99.9 20/99.9.
A short description of data set [3]: RP, Merck Supelco Ascentis Express C18, 100 × 2.1 mm, 2 µm, 40 °C, 0.2 mL/min, estimated dead time 1.1 min; A: water + 0.1% formic acid, pH 3; B: acetonitrile + 0.1% formic acid, pH 3; gradient (min/%B) 0/5 2/5 17/99.9 20/99.9.
Data set [4] in a line: RP, Merck Supelco Ascentis Express C18, 100 × 2.1 mm, 2 µm, 40 °C, 0.25 mL/min, estimated dead time 0.88 min; A: water + 0.1% formic acid, pH 3; B: acetonitrile + 0.1% formic acid, pH 3; gradient (min/%B) 0/5 2/5 17/99.9 20/99.9.
Data set [5] can be described thus: RP, Merck Supelco Ascentis Express C18, 100 × 2.1 mm, 2 µm, 40 °C, 0.2 mL/min, estimated dead time 1.1 min; A: water + 0.1% formic acid, pH 3; B: acetonitrile + 0.1% formic acid, pH 3; gradient (min/%B) 0/5 2/5 17/99.9 20/99.9. This is another data set of the same source.
A short description of data set [6]: RP, Merck Supelco Ascentis Express C18, 100 × 2.1 mm, 2 µm, 40 °C, 0.4 mL/min, estimated dead time 0.55 min; A: water + 0.1% formic acid, pH 3; B: acetonitrile + 0.1% formic acid, pH 3; gradient (min/%B) 0/5 2/5 17/99.9 20/99.9. The source holds these as a separate data set.
Data set [7] is described as follows: RP, Merck Supelco Ascentis Express C18, 100 × 2.1 mm, 2 µm, 39 °C, 0.3 mL/min, estimated dead time 0.73 min; A: water + 0.1% formic acid, pH 3; B: acetonitrile + 0.1% formic acid, pH 3; gradient (min/%B) 0/5 2/5 17/99.9 20/99.9.

SMILES strings stand for the structures. Where a name gives a salt, the structure may show the parent alone.

In the case of `CCCCCCCCCC(C)=O` [2-UNDECANONE], the LC retention time is 8.4 min in data set [1], 8.13 min in data set [2] and 9.69 min in data set [3].
Taken in the same sequence, the figures for `O=C(O)C(O)c1ccc(O)c(O)c1` (centres undefined) [3,4 DIHYDROXYMANDELATE] were 0.79 min, 0.677 min and 1.41 min.
Consider `COc1cc(C(O)CO)ccc1O` (centres undefined) [4-HYDROXY-3-METHOXYPHENYLGLYCOL], for which the LC retention time in data set [1] was 1.21 min; in data set [2] it was 1.07 min.
Taken in the same sequence, the figures for `CCCCCCCCCCCCCCCCCCCC(=O)O` [ARACHIDATE] were 18.3 min and 17.9 min.
With `CCCCCCCC(=O)O` [CAPRYLATE], the LC retention time in data set [1] is 9.28 min; in data set [4], 10 min; in data set [5], 10.7 min; in data set [6] it was 8.82 min; in data set [7], 9.52 min.
Consider `CCCCCCCCCC(=O)O` [DECANOATE], for which the LC retention time is 12 min in data set [4]; 12.7 min in data set [5]; 10.8 min in data set [6]; 12.8 min in data set [3]; 11.5 min in data set [7].
Turning to `Nc1ncnc2c1ncn2C1CC(O)C(CO)O1` (centres undefined) [DEOXYADENOSINE], the LC retention time in data set [1] is 0.77 min; in data set [4] it was 1.09 min; in data set [5], 1.38 min; in data set [6] it was 0.667 min; in data set [7] it was 0.883 min.
For the compound `CC(CCC(=O)O)C1CCC2C3CCC4CC(O)CCC4(C)C3CC(O)C12C` (centres undefined) [DEOXYCHOLATE], the LC retention time in data set [1] was 10.8 min.
Take `CCOC(=O)C(=O)C(C)C(=O)OCC` (centres undefined) [DIETHYL 2-METHYL-3-OXOSUCCINATE]: the LC retention time was 4.92 min in data set [1] and 6.29 min in data set [3].
As to `Cc1cn(C2CC(O)C(COP(=O)(O)OP(=O)(O)OC3OC(CO)C(O)C(O)C3O)O2)c(=O)[nH]c1=O` [DTDP-D-GLUCOSE], in data set [2], the LC retention time was 0.667 min.
With `CCCCCCCCC=CCCCCCCCCCCCC(=O)O` [ERUCATE], the results for the LC retention time in data set [1] and in data set [2] were 18.2 min and 17.8 min, respectively.
`OCC(O)C(O)CO` (centres undefined) [ERYTHRITOL]: the LC retention time is 0.997 min in data set [1] and 0.87 min in data set [2].
On to `CCOC(=O)Cc1c[nH]c2ccccc12` [ETHYL 3-INDOLEACETATE], for which the LC retention time in data set [4] is 9.59 min; in data set [5] it was 10.2 min; in data set [6], 8.46 min; in data set [7] it was 9.1 min.
Turning to `Nc1nc2c(ncn2C2OC(COP(=O)(O)OP(=O)(O)OC3OC(CO)C(O)C(O)C3O)C(O)C2O)c(=O)[nH]1` (centres undefined) [GUANOSINE DIPHOSPHATE MANNOSE], the LC retention time in data set [1] is 0.757 min.
With `Nc1nc2c(ncn2C2OC(CO)C(O)C2O)c(=O)[nH]1` (centres undefined) [GUANOSINE], the LC retention time was 0.757 min in data set [1]; 1.09 min in data set [4]; 1.37 min in data set [5]; 0.667 min in data set [6]; 1.36 min in data set [3]; 0.89 min in data set [7].
Take `CCCCCCC(=O)O` [HEPTANOATE]: the LC retention time is 5.36 min in data set [1] and 6.69 min in data set [3].
For `O=S(=O)(O)Oc1c[nH]c2ccccc12` [INDOXYL SULFATE], the results for the LC retention time in data set [1] and in data set [2] were 3.57 min and 3.2 min, respectively.
Consider `Nc1ccccc1C(=O)CC(N)C(=O)O` (centres undefined) [KYNURENINE], for which, in data set [2], the LC retention time was 1.05 min.
For the compound `CCCCCC=CCC=CCCCCCCCC(=O)O` [LINOLEATE], the LC retention time in data set [1] was 15.3 min; in data set [6] it was 13.1 min; in data set [3] it was 17 min.
With `NC(=O)CCCCC1CCSS1` (centres undefined) [LIPOAMIDE], the LC retention time in data set [4] was 7.07 min; in data set [5] it was 7.65 min; in data set [6] it was 6.08 min; in data set [7], 6.65 min.
In the case of `CCC=CCC1C(=O)CCC1CC(=O)OC` (centres undefined) [METHYL JASMONATE], the LC retention time in data set [4] was 10.5 min; in data set [5] it was 11.2 min; in data set [6], 9.27 min; in data set [7], 9.96 min.
On to `CC(=O)NC(CCC(=O)O)C(=O)O` (centres undefined) [N-ACETYLGLUTAMATE], for which the LC retention time in data set [4] was 1.06 min; in data set [5], 1.36 min; in data set [3] it was 1.35 min; in data set [7], 0.897 min.
Consider `CNCCc1c[nH]c2ccccc12` [N-METHYLTRYPTAMINE], for which the LC retention time in data set [4] was 4.33 min; in data set [5], 4.88 min; in data set [6] it was 3.32 min; in data set [7] it was 3.89 min.
The corresponding values for `CCCCCCCCC=CCCCCCCCCCCCCCC(=O)[O-]` [NERVONATE] are 18.7 min, 18.7 min, 17.4 min and 18.2 min.
For `CCCCCCCCC(=O)[O-]` [NONANOATE], the LC retention time is 11.1 min in data set [4]; 11.7 min in data set [5]; 9.85 min in data set [6]; 11.7 min in data set [3]; 10.5 min in data set [7].
Take `CCCCCCC=CCCCCCCCC(=O)[O-]` [PALMITOLEATE]: the LC retention time is 15.9 min in data set [4]; 16.7 min in data set [5]; 14.5 min in data set [2]; 14.6 min in data set [6]; 16.7 min in data set [3]; 15.3 min in data set [7].
For the compound `NCC(O)c1ccccc1` (centres undefined) [PHENYLETHANOLAMINE], the LC retention time in data set [4] is 1.09 min; in data set [5], 1.4 min; in data set [6] it was 0.673 min; in data set [7] it was 0.883 min.
Taken in the same sequence, the figures for `CC(=CCC1=C(C)C(=O)c2ccccc2C1=O)CCCC(C)CCCC(C)CCCC(C)C` (centres undefined) [PHYLLOQUINONE] were 14.7 min, 15.5 min, 13.3 min and 14.1 min.
Regarding `c1ncc2[nH]cnc2n1` [PURINE], the LC retention time in data set [1] was 0.757 min; in data set [4], 1.07 min; in data set [5], 1.35 min; in data set [3], 1.34 min.
On to `Oc1ccccc1O` [PYROCATECHOL], for which the LC retention time was 1.78 min in data set [1], 3.05 min in data set [4], 1.52 min in data set [2] and 1.55 min in data set [6].
In the case of `O=C(O)c1ccc[nH]1` [PYRROLE-2-CARBOXYLATE], the LC retention time in data set [4] is 1.19 min; in data set [5], 1.54 min; in data set [6], 0.73 min; in data set [7], 3.07 min.
In the case of `O=C(O)c1cccnc1C(=O)O` [QUINOLINATE], the LC retention time in data set [4] was 1.07 min; in data set [5], 1.38 min; in data set [3], 1.38 min; in data set [7] it was 0.937 min.
In the case of `NCCc1c[nH]c2ccc(O)cc12` [SEROTONIN], the LC retention time is 1.35 min in data set [4], 1.77 min in data set [5], 0.857 min in data set [6] and 1.12 min in data set [7].
In the case of `CC=CC=CC(=O)[O-]` [SORBATE], the LC retention time in data set [4] was 6.4 min; in data set [5], 7.02 min; in data set [6], 5.28 min; in data set [7], 5.93 min.
Taken in the same sequence, the figures for `CCCCCCCCCCCCCCCC(O)C(N)CO` (centres undefined) [SPHINGANINE] were 11.5 min, 12.1 min, 10.6 min and 10.9 min.
In the case of `CC(C)=CCCC(C)=CCCC(C)=CCCC=C(C)CCC=C(C)CCC=C(C)C` [SQUALENE], the LC retention time in data set [4] is 14.8 min; in data set [5], 15.6 min; in data set [6], 13.6 min; in data set [7] it was 14 min.
Regarding `Cn1cnc2c1c(=O)[nH]c(=O)n2C` [THEOBROMINE], the LC retention time in data set [4] was 2.12 min; in data set [5], 2.69 min; in data set [6], 1.4 min; in data set [7] it was 1.78 min.
The corresponding values for `O=C/C=C/c1ccccc1` [TRANS-CINNAMALDEHYDE] are 11.1 min, 11.7 min, 10.1 min and 10.7 min.
Taken in the same sequence, the figures for `NCCc1c[nH]c2ccccc12` [TRYPTAMINE] were 3.97 min, 4.56 min, 2.77 min and 3.5 min.
Taken in the same sequence, the figures for `NCCc1ccc(O)cc1` [TYRAMINE] were 1.09 min, 1.4 min, 0.673 min and 0.883 min.
